From patent publication US10363299B2, “Compositions and methods for preventing and treating rhinovirus infections” (priority 2015, dated 2019)
Where “and” joins values, the source holds several entries; their conditions need not be identical. Identical values can stand only once.

How the values were obtained:
Assay type in all cases: cell-based, human
[1] = test system: CD4+ T cells; assay: Tetramer-guided epitope mapping (TGEM): pMHCII tetramer staining of PBMC cultures stimulated with RV peptides; details: one value per subject
From the text: (§1) Peptide libraries consisting of 20mers with a 12 amino acid overlap were generated to span the VP1, VP2 and VP4 protein sequences of RV-A16, and VP1 and VP2 protein sequences of RV-A39 (UniprotKB accession # Q82122, Q5XLP5). […] Biologically relevant pMHCII complexes were identified by tetramer-guided epitope mapping (TGEM). This involved 2 steps: First, PBMC cultures established from subjects with known HLA-DR types were stimulated with RV peptide pools derived from VP1, VP2, or VP4, and then stained with pMHCII tetramer pools composed of HLA-DR molecules corresponding to those expressed in the test subject; Second, positive signals were de-convoluted by repeating and staining with single-peptide tetramers. Tetramers that gave strong positive signals (˜1% of total CD4+ T cells) in the single peptide-tetramer screen in more than one subject, were then re-tested for their ability to detect RV-specific CD4+ T cells in non-stimulated PBMCs (denoted as ex vivo analysis) in multiple subjects.
(§2) All experiments were performed in subjects expressing HLA-DR molecules corresponding to the selected tetramer. Precursor frequencies of circulating tetramer+ cells were then calculated by established methods. Tetramer+ cells were phenotyped for surface markers by staining PBMCs with PE-conjugated tetramers, labeling with anti-PE magnetic beads, enriching with an AutoMACS separator (Miltenyi Biotec, Auburn, Calif., USA), and then counterstaining for surface markers. A tetramer displaying an irrelevant peptide, GAD555-567, was used as a staining control. For simplicity, identified RV-A16 peptide epitopes were given a numerical designation.

[2] = test system: RV-specific CD4+ T cells; assay: Direct ex vivo pMHCII tetramer staining of non-stimulated PBMCs; parameters: key to Validated: Y means validated; details: for Ex Vivo Frequency (# per 10^6 CD4): directly ex vivo, without culture, one value per subject
From the text: as §1, §2

[3] = test system: RV-specific CD4+ T cells; assay: Assay to assess T-cell cross-reactivity (14-day peptide stimulation of PBMCs, tetramer and cytokine staining); details: PBMCs from HLA-DR*0401+ subjects stimulated 14 days
Protocol: RV-specific CD4+ T cells were expanded in vitro using established methods. Briefly, PBMCs from HLA-DRB 1*0401+ subjects were stimulated with RV-A39 VP2169-188, or else unstimulated, for 14 days. Supplemental IL-2 (10 U/ml) was given days 7-14. Cells were then stained with RV tetramers and re-stimulated with PMA and ionomycin in the presence of Brefeldin A before staining for intracellular cytokines. Cells were analyzed on a BD LSR Fortessa (UVA Flow Cytometry Core Facility) and data analysis was performed using FlowJo version 9.3.3 (Tree Star Inc., Ashland, Oreg.). Analysis and presentation of distributions was performed using SPICE version 5.3, downloaded from a National Institutes of Health website.

[4] = HLA allele 1*0101 tetramer, tetramer-positive CD4+ T cells in peptide-stimulated PBMC cultures
[5] = HLA allele DRB5 tetramer, peptide-stimulated PBMC cultures
[6] = HLA allele 1*0101 tetramer, reliable ex vivo signal (tetramer+ cells ≥2 per million CD4+ T cells in ≥3 subjects)
[7] = HLA allele 1*0701 tetramer, peptide-stimulated PBMC cultures
[8] = HLA allele 1*1501 tetramer, peptide-stimulated PBMC cultures
[9] = HLA allele 1*0701 tetramer, reliable ex vivo signal
[10] = HLA allele 1*1101 tetramer, peptide-stimulated PBMC cultures
[11] = HLA allele 1*0401 tetramer, peptide-stimulated PBMC cultures
[12] = HLA allele DRB5 tetramer, reliable ex vivo signal
[13] = HLA allele 1*0404 tetramer, peptide-stimulated PBMC cultures

With PHQFINLRSNNSATLIVPYV [VP2P24] the “In Vitro Frequency (% CD4)” value [1, 4] was 2.82 % CD4 and 3.17 % CD4 and 11.3 % CD4, the “In Vitro Frequency (% CD4)” value [1, 5] was 0 % CD4 (2×) and 0.67 % CD4 and the “Ex Vivo Frequency (# per 10^6 CD4)” value ([2]; HLA allele 1*0101 tetramer) was 17 # per 10^6 CD4 and 148 # per 10^6 CD4 and 26 # per 10^6 CD4. For the same sequence, the Validated [2, 6] was “Y”.

In the case of PRFSLPFLSIASAYYMFYDG [VP1P23], the “In Vitro Frequency (% CD4)” value [1, 4] is reported as 8.37 % CD4 and 0.35 % CD4 and 2.37 % CD4, the “In Vitro Frequency (% CD4)” value [1, 7] is reported as 1.84 % CD4 and 0.74 % CD4 and the “In Vitro Frequency (% CD4)” value [1, 8] is reported as 0.28 % CD4 and 0.78 % CD4 and 0 % CD4. The “In Vitro Frequency (% CD4)” value [1, 5] was 2.03 % CD4 and 2.90 % CD4, the “Ex Vivo Frequency (# per 10^6 CD4)” value ([2]; HLA allele 1*0101 tetramer) was 3 # per 10^6 CD4 and 8 # per 10^6 CD4 and 13 # per 10^6 CD4 and 2 # per 10^6 CD4 and the Validated [2, 6] was “Y”. The “Ex Vivo Frequency (# per 10^6 CD4)” value ([2]; HLA allele 1*0701 tetramer) was 3 # per 10^6 CD4 and 8 # per 10^6 CD4 and 13 # per 10^6 CD4 and 2 # per 10^6 CD4, the Validated [2, 9] was “Y” and the “Ex Vivo Frequency (# per 10^6 CD4)” value ([2]; HLA allele DRB5 tetramer) was 11 # per 10^6 CD4.

In the case of PSVEACGYSDRIIQITRGDS [VP2P1], the “In Vitro Frequency (% CD4)” value [1, 10] is reported as 1.59 % CD4 and 1.16 % CD4 and 0.66 % CD4.

For QIRRKFEMFTYARFDSEITM [VP1P14], the “In Vitro Frequency (% CD4)” value [1, 11] was 0.59 % CD4 and 0.96 % CD4 and the “Ex Vivo Frequency (# per 10^6 CD4)” value ([2]; HLA allele 1*0401 tetramer) was 4 # per 10^6 CD4.

QSGTNASVFWQHGQPFPRFS [VP1P21] was tested, and the “In Vitro Frequency (% CD4)” value [1, 5] was 3.91 % CD4 and 0.95 % CD4, the “Ex Vivo Frequency (# per 10^6 CD4)” value ([2]; HLA allele DRB5 tetramer) was 11 # per 10^6 CD4 and 28 # per 10^6 CD4 and 20 # per 10^6 CD4 and the Validated [2, 12] was “Y”.

In the case of RGDSTITSQDVANAVVGYGV [VP2P3], the “In Vitro Frequency (% CD4)” value [1, 13] is reported as 6.86 % CD4 and 1.61 % CD4, the “Ex Vivo Frequency (# per 10^6 CD4)” value ([2]; HLA allele 1*0404 tetramer) is reported as 36 # per 10^6 CD4 and 1 # per 10^6 CD4 and 38 # per 10^6 CD4 and 5 # per 10^6 CD4 and the Validated ([2]; HLA allele 1*0404 tetramer, reliable ex vivo signal) is reported as “Y”.

In the case of RPPRAVQYSHTHTTNYKLSS [VP1P32], the “In Vitro Frequency (% CD4)” value [1, 7] is reported as 0.53 % CD4 and 0 % CD4.

For “SDDNWLNFDGTLLGNLLIFP [RV-A39 VP2169-188]”, the “cytokine profile of expanded RV-specific T cells” value ([3]; PMA/ionomycin re-stimulation) was “a major IFN-γ+IL-4neg population, and minor populations expressing IL-17A and IL-21” and the “expansion of tetramer-positive RV-specific CD4+ T cells after peptide stimulation” value ([3]; RV-A16 and RV-A39 VP2 tetramers) was “induced expansion of both RV-A16- and RV-A39-specific T-cells”.

SDRIIQITRGDSTITSQDVA [VP2P2] was tested, and the “In Vitro Frequency (% CD4)” value [1, 10] was 2.18 % CD4 and 1.22 % CD4 and 2.28 % CD4, the “Ex Vivo Frequency (# per 10^6 CD4)” value ([2]; HLA allele 1*1101 tetramer) was 8 # per 10^6 CD4 and 11 # per 10^6 CD4 and 15 # per 10^6 CD4 and the Validated ([2]; HLA allele 1*1101 tetramer, reliable ex vivo signal) was “Y”.

SIASAYYMFYDGYDGDTYKS [VP1P24] was tested, and the “In Vitro Frequency (% CD4)” value [1, 8] was 0.31 % CD4 and 0 % CD4 (2×).

In the case of SNNSATLIVPYVNAVPMDSM [VP2P25], the “In Vitro Frequency (% CD4)” value [1, 11] is reported as 0 % CD4 and 0.46 % CD4, the “In Vitro Frequency (% CD4)” value [1, 8] is reported as 2.26 % CD4 and 9.02 % CD4 and the “Ex Vivo Frequency (# per 10^6 CD4)” value ([2]; HLA allele 1*1501 tetramer) is reported as 31 # per 10^6 CD4 and 5 # per 10^6 CD4 and 13 # per 10^6 CD4 and 71 # per 10^6 CD4. For the same sequence, the Validated ([2]; HLA allele 1*1501 tetramer, reliable ex vivo signal) was “Y”.

For TSKGWWWKLPDALKDMGIFG [VP2P10], the “In Vitro Frequency (% CD4)” value [1, 5] was 3.93 % CD4 and 4.49 % CD4 and 0.38 % CD4, the “Ex Vivo Frequency (# per 10^6 CD4)” value ([2]; HLA allele DRB5 tetramer) was 60 # per 10^6 CD4 and 24 # per 10^6 CD4 and 136 # per 10^6 CD4 and the Validated [2, 12] was “Y”.

For TSSNRFYTLDSKMWNSTSKG [VP2P8], the “In Vitro Frequency (% CD4)” value [1, 13] was 0.77 % CD4 and 1.82 % CD4, the “In Vitro Frequency (% CD4)” value [1, 10] was 0 % CD4 (2×) and 0.26 % CD4 and the “Ex Vivo Frequency (# per 10^6 CD4)” value ([2]; HLA allele 1*0404 tetramer) was 2 # per 10^6 CD4.

TTRNDYAWQSGTNASVFWQH [VP1P20] was tested, and the “In Vitro Frequency (% CD4)” value [1, 4] was 18.7 % CD4 and 0 % CD4 (2×).

VPYVNAVPMDSMVRHNNWSL [VP2P26] was tested, and the “In Vitro Frequency (% CD4)” value [1, 7] was 1.57 % CD4 and 0.84 % CD4, the “Ex Vivo Frequency (# per 10^6 CD4)” value ([2]; HLA allele 1*0701 tetramer) was 4 # per 10^6 CD4 and 16 # per 10^6 CD4 and 14 # per 10^6 CD4 and 5 # per 10^6 CD4 and the Validated [2, 9] was “Y”.

In the case of VVTNDMGTLCSRIVTSEQLH [VP1P27], the “In Vitro Frequency (% CD4)” value [1, 7] is reported as 0 % CD4 and 0.13 % CD4.
